Test results reported in PubChem BioAssay (NCI).
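Cultured in 96-well plates, cells were exposed to test compound for 48 hours across five concentrations. TGI denotes the concentration required for complete inhibition of growth.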

Assays:
Test in all cases: DTP human tumour cell line panel, 48 h
DMS 273 small cell lung = tested on: DMS 273 small cell lung
DMS 114 small cell lung = tested on: DMS 114 small cell lung
DLD-1 colon = tested on: DLD-1 colon
A549 NSCLC = tested on: A549 NSCLC
U251 CNS = tested on: U251 CNS
M14 melanoma = tested on: M14 melanoma
OVCAR-5 ovarian = tested on: OVCAR-5 ovarian
ACHN renal = tested on: ACHN renal
HOP-18 NSCLC = tested on: HOP-18 NSCLC
KM20L2 colon = tested on: KM20L2 colon
CAKI-1 renal = tested on: CAKI-1 renal
SNB-78 CNS = tested on: SNB-78 CNS
NCI/ADR-RES ovarian = tested on: NCI/ADR-RES ovarian

Row | Structure (SMILES) | TGI (DMS 273 small cell lung) | TGI (DMS 114 small cell lung) | TGI (DLD-1 colon) | TGI (A549 NSCLC) | TGI (U251 CNS) | TGI (M14 melanoma) | TGI (OVCAR-5 ovarian) | TGI (ACHN renal) | TGI (HOP-18 NSCLC) | TGI (KM20L2 colon) | TGI (CAKI-1 renal) | TGI (SNB-78 CNS) | TGI (NCI/ADR-RES ovarian)
1 | COc1cccc(-c2cc(=O)c3ccccc3[nH]2)c1 | > 100 µM | > 59.3 µM | > 100 µM | > 100 µM | > 100 µM | > 100 µM | > 100 µM | > 100 µM | > 100 µM | 27.1 µM | – | – | –
2 | COc1cccc(/C=N/[N-]C(N)=O)c1[O-].[Cu+2].[OH3+].c1ccc(-c2ccccn2)nc1 | – | – | – | > 100 µM | 31.3 µM | 74 µM | > 100 µM | 98.9 µM | – | > 100 µM | 83.7 µM | – | –
3 | Cc1cc(=O)[nH]c(NN2C(Cl)C(=O)C2c2cccc(Cl)c2)n1 (configuration not stated) | 33.9 µM | 54.8 µM | – | > 100 µM | > 100 µM | 35.4 µM | > 100 µM | > 100 µM | 55.2 µM | > 100 µM | – | 79.3 µM | –
4 | O=C1Nc2ccccc2Nc2ccncc21 | > 100 µM | > 100 µM | > 100 µM | > 100 µM | > 100 µM | – | > 100 µM | – | > 100 µM | > 100 µM | > 100 µM | > 100 µM | > 100 µM
5 | O=C1C(CN2CCOCC2)CCCC1CN1CCOCC1 (configuration not stated) | 19.4 µM | 11.4 µM | 1.83 µM | 55.4 µM | 45 µM | 7.1 µM | 36.6 µM | 3.53 µM | 3.2 µM | 58.2 µM | 1.57 µM | 5.02 µM | –
6 | O=C1c2cn[nH]c2C(c2ccccc2)N1c1ccccc1 (configuration not stated) | – | – | – | > 10 µM | > 10 µM | > 10 µM | > 10 µM | > 10 µM | – | – | > 10 µM | – | > 10 µM
7 | CC(C)(C)OC(=O)NCCCCC(NC(=O)c1ccccc1)C(N)=O (configuration not stated) | – | – | – | > 100 µM | > 100 µM | > 100 µM | > 100 µM | > 100 µM | – | – | > 100 µM | – | > 100 µM
8 | Cc1ccc2c(c1)C(=O)C(C1OC(=O)c3ccccc31)C2 (configuration not stated) | – | – | – | > 100 µM | > 100 µM | > 100 µM | > 100 µM | > 100 µM | – | – | > 100 µM | – | > 100 µM
9 | CCOC(=O)N(c1ccccc1)N(CC)C(=O)/C(C)=N/Nc1ccc([N+](=O)[O-])cc1 | 30 µM | 43.5 µM | 30.7 µM | 33.9 µM | 28.2 µM | 31.7 µM | – | 40.9 µM | 36.9 µM | 31.3 µM | – | 58.9 µM | –
10 | CC(=O)Oc1ccc(/C=C/C(=O)O[C@@H](C(=O)O)[C@@H](OC(=O)/C=C/c2ccc(OC(C)=O)c(OC(C)=O)c2)C(=O)O)cc1OC(C)=O | – | – | – | > 100 µM | > 100 µM | > 100 µM | > 100 µM | > 100 µM | – | – | > 100 µM | – | > 100 µM
11 | C[Si](C)(c1ccccc1)[C@H]1CCCC=C1CCNC1c2ccccc2CCc2ccccc21 | – | – | – | > 100 µM | > 100 µM | > 100 µM | > 100 µM | > 100 µM | – | – | > 100 µM | – | > 100 µM
12 | O=c1cnn(CCOCP(=O)(O)O)c(=O)[nH]1 | – | – | – | > 100 µM | > 100 µM | > 100 µM | > 100 µM | > 100 µM | – | – | > 100 µM | – | > 100 µM
